From paper PMC5012625 (International Journal of Nanomedicine, 2016)

What was measured:
[1] = Pharmacokinetic study in rats; type: in vivo; settings: female, Sprague Dawley, rat, plasma
[2] = Particle size and surface charge by dynamic light scattering; type: physicochemical; settings: dynamic light scattering analyzer, Nano ZS, mean ± SD

Row | Compound | AUC(0-inf) ([1]; 0.1 mg kg^−1) | AUC(0-t) ([1]; 0.1 mg kg^−1) | Cmax ([1]; 0.1 mg kg^−1) | Tmax ([1]; 0.1 mg kg^−1) | F rel ([1]; 0.1 mg/kg) | AUC(0-inf) ([1]; sc, 0.02 mg kg^−1) | AUC(0-t) ([1]; sc, 0.02 mg kg^−1) | Cmax ([1]; sc, 0.02 mg kg^−1) | Tmax ([1]; sc, 0.02 mg kg^−1) | Zeta potential [2]
1 | CC[C@H](C)[C@H](NC(=O)[C@H](CCC(=O)O)NC(=O)[C@H](CO)NC(=O)[C@@H](NC(=O)[C@@H](N)CO)C(C)C)C(=O)N[C@@H](CCC(N)=O)C(=O)N[C@@H](CC(C)C)C(=O)N[C@@H](CCSC)C(=O)N[C@@H](Cc1cnc[nH]1)C(=O)N[C@@H](CC(N)=O)C(=O)N[C@@H](CC(C)C)C(=O)NCC(=O)N[C@@H](CCCCN)C(=O)N[C@@H](Cc1cnc[nH]1)C(=O)N[C@@H](CC(C)C)C(=O)N[C@@H](CC(N)=O)C(=O)N[C@@H](CO)C(=O)N[C@@H](CCSC)C(=O)N[C@@H](CCC(=O)O)C(=O)N[C@@H](CCCN=C(N)N)C(=O)N[C@H](C(=O)N[C@@H](CCC(=O)O)C(=O)N[C@@H](Cc1c[nH]c2ccccc12)C(=O)N[C@@H](CC(C)C)C(=O)N[C@@H](CCCN=C(N)N)C(=O)N[C@@H](CCCCN)C(=O)N[C@@H](CCCCN)C(=O)N[C@@H](CC(C)C)C(=O)N[C@@H](CCC(N)=O)C(=O)N[C@@H](CC(=O)O)C(=O)N[C@H](C(=O)N[C@@H](Cc1cnc[nH]1)C(=O)N[C@@H](CC(N)=O)C(=O)N[C@@H](Cc1ccccc1)C(=O)O)C(C)C)C(C)C [rhPTH (1-34)] | 0.0448 ng·h/mL | 0.0309 ng·h/mL | 0.0392 ± 0.0198 ng/mL | 30 min | 1.06 ± 0.85% | 0.603 ng·h/mL | 0.585 ng·h/mL | 0.711 ± 0.0978 ng/mL | 15 min | 
2 | lysine-linked deoxycholic acid [LysDOCA] |  |  |  |  |  |  |  |  |  | 6.27±1.29
